How the values were obtained:
RIPK1 = RIPK1 (Homo sapiens (Human), UniProt Q13546); assay: biochemical; type: biochemical; conditions: RIPK1 enzyme 31 ng/well, 30° C. for 30 minutes, luminescence; read-out: RIPK1 ADP-Glo Kinase (IC50)
Outline: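 ADP-Glo luminescent assay of RIPK1 at 31 ng/well in Tris-HCl pH 7.4 buffer with MgCl2, BSA, 100 μM DTT and 4 mM MnCl2; compounds run in duplicate. Kinase reaction 30 min at 30 °C, then ADP-Glo 40 min and detection reagent 30 min at room temperature; ADP formation read as luminescence.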

U937 cells = assay: U937 cell necroptosis assay (TNFa + zVAD, CellTiter-Glo recovery), functional human RIP1 assay; type: cell-based; conditions: Homo sapiens, U-937, 18 h, read-out: U937 Zvad TNF CTG Recovery, U937, TNFa + zVAD (IC50), U937 cells, zVAD-fmk, TNFa 2 ng/mL, 18 hours, CellTiter-Glo
Outline: (§1)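 Human U937 cells (50K/well, 60 uM zVAD-fmk in plating medium) and murine L929 cells (10K/well, medium replaced with 40 uM zVAD-fmk) were pre-incubated with compound 1 h at 37 °C. TNFa was then added at a final 2 ng/mL. Viability by CellTiter-Glo luminescence after 18 h.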

L929 cells = assay: L929 cell necroptosis assay (TNFa + zVAD, CellTiter-Glo recovery), functional murine RIP1 assay; type: cell-based; conditions: Mus musculus, L929, 18 h, read-out: L929-CTG-recovery, L929, TNFa + zVAD (IC50), L929 cells, zVAD-fmk, TNFa 2 ng/mL, 18 hours, CellTiter-Glo
Outline: as §1

RIPK1, sequence (Q13546 whole entry, species assumed): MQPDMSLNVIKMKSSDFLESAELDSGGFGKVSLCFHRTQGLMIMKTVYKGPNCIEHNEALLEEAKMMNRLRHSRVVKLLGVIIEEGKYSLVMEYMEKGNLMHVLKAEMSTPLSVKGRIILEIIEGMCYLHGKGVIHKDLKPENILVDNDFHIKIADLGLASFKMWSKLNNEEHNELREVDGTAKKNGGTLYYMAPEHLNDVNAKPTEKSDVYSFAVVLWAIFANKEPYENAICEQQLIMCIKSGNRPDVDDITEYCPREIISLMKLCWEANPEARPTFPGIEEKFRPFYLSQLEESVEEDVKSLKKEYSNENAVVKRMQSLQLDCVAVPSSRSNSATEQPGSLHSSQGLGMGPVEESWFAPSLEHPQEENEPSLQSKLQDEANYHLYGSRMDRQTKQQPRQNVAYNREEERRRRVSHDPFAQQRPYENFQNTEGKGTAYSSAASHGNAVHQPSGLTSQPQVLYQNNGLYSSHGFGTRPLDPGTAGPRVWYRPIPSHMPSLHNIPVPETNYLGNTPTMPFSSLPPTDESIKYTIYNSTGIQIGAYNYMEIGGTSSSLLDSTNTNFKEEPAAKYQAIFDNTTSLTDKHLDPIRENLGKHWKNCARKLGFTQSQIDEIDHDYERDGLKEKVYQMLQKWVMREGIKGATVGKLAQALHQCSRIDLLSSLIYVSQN

SMILES | IC50 (RIPK1) [µM] | IC50 (U937 cells) [µM] | IC50 (L929 cells) [µM]
O=C(N[C@H]1COc2ccc(N3CC4(CCOCC4)C3)cc2-n2ccnc21)c1cc(Oc2ccccc2)ccn1 [Compound I-88, (R)—N-(9-(7-Oxa-2-azaspiro[3.5]nonan-2-yl)-4,5-dihydrobenzo[b]imidazo[1,2-d][1,4]oxazepin-4-yl)-4-phenoxypicolinamide] | 0.112 | 0.163 | 10000
O=C(N[C@H]1COc2ccc(C#Cc3ccccn3)cc2-n2ccnc21)c1n[nH]c(Cc2ccccc2)n1 [Compound I-89, (R)-5-Benzyl-N-(9-(pyridin-2-ylethynyl)-4,5-dihydrobenzo[b]imidazo[1,2-d][1,4]oxazepin-4-yl)-1H-1,2,4-triazole-3-carboxamide] | 0.108 | 0.0352 | 7.93
